Reference: PMC11052784 (European Journal of Drug Metabolism and Pharmacokinetics, 2024)
Like-named read-outs stand apart in the source and are kept apart here.

Key:
CYP1A2 = details: with abrocitinib 200 mg QD
CYP1A2/2B6/2C19/3A = test: Reversible inhibition in human liver microsomes; type: in vitro ADME; details: HLM
CYP3A4/5 = test: Time-dependent inhibition; type: in vitro ADME, human; details: HLM; for TDI of CYP3A after 30-min preincubation: incubation concentration ≥ 99.5 µM
CYP2C19 [1] = biological target: T1, CYP2C19 (Homo sapiens, UniProt P33261); type: in vitro ADME; details: HLM
CYP3A [2] = test: Oral contraceptive DDI study; type: in vivo, human
CYP3A [3] = test: Midazolam DDI study
[4] = tested on: pregnane X receptor (PXR) pathway; test: Induction via the pregnane X receptor pathway; type: in vitro ADME; details: data on file
CYP2B6 = details: after multiple doses of abrocitinib 200 mg QD
[5] = after administration as tablet; cited from earlier work
CYP2C19 [6] = details: cited from earlier work
Safety = type: in vivo, human; details: coadministered with midazolam, caffeine, efavirenz, omeprazole or oral contraceptives; healthy adult participants
CYP2C19 [7] = biological target: T1, CYP2C19
[8] = with multiple doses of abrocitinib vs LN alone
[9] = multiple doses of abrocitinib 200 mg QD, Day 7 vs midazolam alone
[10] = with abrocitinib 200 mg QD on Day 2 vs midazolam alone
[11] = after multiple doses of abrocitinib 200 mg QD
[12] = abrocitinib 200 mg QD with omeprazole 10 mg single dose

T1 sequence (P33261 whole entry): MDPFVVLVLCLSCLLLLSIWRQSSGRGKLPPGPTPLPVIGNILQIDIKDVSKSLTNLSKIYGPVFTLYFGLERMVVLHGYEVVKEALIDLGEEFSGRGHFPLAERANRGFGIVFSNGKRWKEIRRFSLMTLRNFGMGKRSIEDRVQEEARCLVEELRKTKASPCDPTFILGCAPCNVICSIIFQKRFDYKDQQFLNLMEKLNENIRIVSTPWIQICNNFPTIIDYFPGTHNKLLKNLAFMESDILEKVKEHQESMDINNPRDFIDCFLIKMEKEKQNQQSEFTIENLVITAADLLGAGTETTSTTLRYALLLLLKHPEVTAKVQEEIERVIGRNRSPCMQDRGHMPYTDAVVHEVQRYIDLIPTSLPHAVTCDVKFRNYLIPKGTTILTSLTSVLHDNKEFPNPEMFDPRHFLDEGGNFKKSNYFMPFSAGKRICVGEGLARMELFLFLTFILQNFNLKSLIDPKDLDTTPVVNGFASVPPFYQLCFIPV

SMILES: Cn1c(=O)c2c(ncn2C)n(C)c1=O [Caffeine, caffeine]
- Increase of caffeine AUCinf (CYP1A2): 1.4 fold

SMILES: CC(O)CS(=O)(=O)N[C@H]1C[C@@H](N(C)c2ncnc3[nH]ccc23)C1 (some centres unmarked) [M2]
- Reversible inhibition of CYP1A2/2B6/2C19/3A (CYP1A2/2B6/2C19/3A): no reversible inhibition
- TDI of CYP3A in the absence of NADPH (CYP3A4/5): weak TDI
- TDI of CYP3A after 30-min preincubation (CYP3A4/5): weak TDI
- TDI of CYP3A in the presence of NADPH (CYP3A4/5): weak TDIs
- TDI of CYP2C19 in the absence of NADPH (CYP2C19 [1]): weak TDI
- TDI of CYP2C19 in the presence of NADPH (CYP2C19 [1]): weak TDIs

SMILES: C#C[C@]1(O)CC[C@H]2[C@@H]3CCC4=CC(=O)CC[C@@H]4[C@H]3CC[C@@]21CC [Levonorgestrel, levonorgestrel]
- Change of adjusted geometric mean AUClast (CYP3A [2]; [8]): did not change
- Decrease of adjusted geometric mean Cmax (CYP3A [2]; [8]): approximately 14%

SMILES: Cc1ncc2n1-c1ccc(Cl)cc1C(c1ccccc1F)=NC2 [Midazolam, midazolam]
- Decrease of adjusted geometric mean AUCinf of midazolam (CYP3A [3]; [9]): approximately 7.7%
- Decrease of adjusted geometric mean Cmax of midazolam (CYP3A [3]; [9]): ~6.5%
- Decrease of adjusted geometric mean AUCinf of midazolam (CYP3A [3]; [10]): approximately 15.7%
- Decrease of adjusted geometric mean Cmax of midazolam (CYP3A [3]; [10]): ~13.7%

SMILES: CCCS(=O)(=O)N[C@H]1C[C@@H](N(C)c2ncnc3[nH]ccc23)C1 [Abrocitinib, N-{cis-3-[Methyl(7H-pyrrolo[2,3-d]pyrimidin-4-yl)amino]cyclobutyl}propane-1-sulfo namide]
- Effect of abrocitinib on the pharmacokinetics of OCs (CYP3A [2]; [11]): lack of effect
- Induction via the PXR pathway [4]: weak signal
- Effect of abrocitinib on the pharmacokinetics of efavirenz (CYP2B6): lack of effect
- Median Tmax of abrocitinib [5]: ≤ 1 h
- Effect of abrocitinib on the pharmacokinetics of midazolam (CYP3A [3]; [11]): lack of effect
- Share of abrocitinib metabolism by CYP2C19 (CYP2C19 [6]): approximately 53%
- Overall safety and tolerability (Safety): generally safe and well tolerated

SMILES: COc1ccc2[nH]c([S+]([O-])Cc3ncc(C)c(OC)c3C)nc2c1 (centres unmarked) [Omeprazole, omeprazole]
- Increase of omeprazole AUCinf (CYP2C19 [7]; [12]): approximately 2.9 fold
- Increase of omeprazole Cmax (CYP2C19 [7]; [12]): ~2.3 fold
- Increase of omeprazole Cmax (CYP2C19 [7]; with multiple doses of abrocitinib 200 mg QD): ~134%

SMILES: CN(c1ncnc2[nH]ccc12)[C@H]1C[C@@H](NS(=O)(=O)CCCO)C1 [M1]
- Reversible inhibition of CYP1A2/2B6/2C19/3A (CYP1A2/2B6/2C19/3A): no reversible inhibition
- TDI of CYP3A in the absence of NADPH (CYP3A4/5): weak TDI
- TDI of CYP3A after 30-min preincubation (CYP3A4/5): weak TDI
- TDI of CYP3A in the presence of NADPH (CYP3A4/5): weak TDIs
- TDI of CYP2C19 in the absence of NADPH (CYP2C19 [1]): weak TDI
- TDI of CYP2C19 in the presence of NADPH (CYP2C19 [1]): weak TDIs
